The results in this text go back to patent US20100183563A1, “DENTINOGENESIS PROMOTER AND DENTINOGENIC PULP-CAPPING MATERIAL” (ORGAN TECHNOLOGIES, INC., priority 2007, published 2010).

Holding throughout (format): cell-based, human
For assay [1], the system named is dental pulp stem cells (DPSCs). Put plainly: Proliferation of dental pulp stem cells, cell number by the MTS method. The conditions noted are these: for effect on proliferation of DPSCs compared with the control: 1 μM, Example 2, FIG. 5. As to the method: Dental pulp stem cells (DPSCs) were isolated in accordance with a method of Gronthos et al. (Proc. Natl. Acad. Sci. USA, 97: 13625-30, 2000) from a human extracted tooth that was submitted with informed consent under the permission of Okayama University Dental School Ethics Committee.
Specifically, pulp obtained from an extracted human tooth was enzyme-treated for 30 minutes at 37° C. with 3 mg/ml type 1 collagenase (Worthington Biochemicals Corp.) and 4 mg/ml dispase (Roche Diagnostic/Boehringer Mannheim Corp.), and then cultured using α-MEM culture medium containing 10% fetal bovine serum (FBS), L-ascorbic acid (0.1 mM), L-glutamine (2 mM), penicillin (100 μg/ml), and streptomycin (100 μg/ml).
Specifically, the DPSCs prepared above (1) were cultured under 5% CO2 at 37° C. in α-MEM culture medium including 10% fetal bovine serum (FBS) containing SVS at a concentration of 1 μM, L-ascorbic acid (0.1 mM), L-glutamine (2 mM), penicillin (100 μg/ml), and streptomycin (100 μg/ml). The culture medium was exchanged twice a week, and the number of cells on […] was indirectly evaluated using the MTS method (Barltrop, J. A. et al. 5-(3-carboxymethoxyphenyl)-2-(4,5-dimenthylthiazoly)-3-(4-sulfophenyl)tetrazolium, inner salt (MTS) and related analogs of 3-(4,5-dimethylthiazolyl)-2,5-diphenyl-tetrazolium bromide (MTT) reducing to purple water-soluble formazans as cell-viability indicators. Bioorg. & Med. Chem. Lett. 1, 611, 1991).
On day 0, day 3, and day 5 from the beginning of cultivation, the cell number of DPSCs was measured using the MTS method.
On day 5 from the beginning of cultivation, the cell number of DPSCs was measured using the MTS method.
Specifically, in Example 1, section (2), dental pulp stem cells (DPSCs) were cultured in the presence of each of the following: (a) simvastatin (1 μM) (simvastatin added group); (b) simvastatin (1 μM) and mevalonate (1 mM) (mevalonate added group); and (c) simvastatin (1 μM), mevalonate (1 mM) and Fasudil (10 μM) (Fasudil combined use group). On day 0, day 3, and day 5 from the beginning of cultivation, the cell number of DPSCs was measured using the MTS method.

For assay [2], the system named is osteocalcin (OCN) gene expression in dental pulp stem cells (DPSCs). Put plainly: Gene expression of OCN (marker of calcification) in DPSCs by RT-PCR. The settings on record: for gene expression of OCN compared with the control and the comparison (BMP-2): 1 μM, day 14, Example 2, FIG. 6. As to the method:
(§1) Specifically, the DPSCs prepared above (1) were cultured under a 5% CO2 gas phase at 37° C. in α-MEM culture medium including 10% fetal bovine serum (FBS) containing SVS at a concentration of 1 μM, L-ascorbic acid (0.1 mM), L-glutamine (2 mM), penicillin (100 μg/ml), and streptomycin (100 μg/ml). Total RNA was collected from cells obtained on day 3, day 7, and day 10 from the beginning of cultivation, and gene expression of dentin sialophosphoprotein (DSPP), i.e., an odontoblast-specific marker (Ritchie H H et al. J. Biol. Chem., 269:3698-702, 1994; Butler W T et al. Matrix., 12:343-51, 1992), and gene expression of osteocalcin (OCN), i.e., a marker of calcification (Bronckers A L et al. Connect Tissue Res., 22:65-70, 1989) were evaluated using qualitative RT-PCR (Narayanan K et al., J. Biol. Chem., 281(28):19064-71, 2006).
Dental pulp stem cells (DPSCs) were cultured in a manner similar to Example 1, section (3), using simvastatin (1 μM), fluvastatin (1 μM), mevastatin (1 μM), lovastatin (1 μM), and plavastatin (200 μM) respectively as HGM-CoA reductase inhibitors. Gene expression of OCN, i.e., a marker of calcification was evaluated on day 14, using qualitative RT-PCR.

Assay [3] deals with dentin sialophosphoprotein (DSPP) gene expression in dental pulp stem cells (DPSCs). Put plainly: Gene expression of DSPP (odontoblast-specific marker) in DPSCs by RT-PCR. The settings on record: SVS 1 μM, p=0.0111. The method, then: as §1

Take `O=S(=O)(c1cccc2cnccc12)N1CCCNCC1` [Fasudil]: in assay [1] (Fasudil at not less than 10 μM (tested 1, 10, 100 μM), day 5, FIG. 7), the “effect on proliferation of DPSCs” value is given as “inhibited proliferation of DPSCs”. For the same molecule, in assay [1] (simvastatin 1 μM + mevalonate 1 mM + Fasudil 10 μM, day 5, FIG. 8), the “effect on cell proliferation of DPSCs, Fasudil combined use group” value is “greater inhibition of cell proliferation of DPSCs than the comparison”. As to `CC(C)n1c(/C=C/C(O)CC(O)CC(=O)O)c(-c2ccc(F)cc2)c2ccccc21` (stereo not drawn) [fluvastatin], the “gene expression of OCN compared with the control and the comparison (BMP-2)” value in assay [2] is on record as “increase in gene expression of OCN”. Besides, in assay [1] (day 5), the “effect on proliferation of DPSCs compared with the control” value was “inhibited proliferation of DPSCs with a significant difference”.

Take `CC[C@H](C)C(=O)O[C@H]1C[C@@H](C)C=C2C=C[C@H](C)[C@H](CC[C@@H]3C[C@@H](O)CC(=O)O3)[C@H]21` [lovastatin]: the “gene expression of OCN compared with the control and the comparison (BMP-2)” value in assay [2] is on record as “increase in gene expression of OCN”. Also, the “effect on proliferation of DPSCs compared with the control” value in assay [1] (day 5) was “inhibited proliferation of DPSCs with a significant difference”. Regarding `CC(O)(CCO)CC(=O)O` (stereo not drawn) [mevalonate], the “effect of mevalonate supply on simvastatin-induced inhibition of DPSC proliferation” value in assay [1] (simvastatin 1 μM + mevalonate 1 mM, day 5, FIG. 8) was “disappearance of the cell proliferation inhibiting effect”. Regarding `CC[C@H](C)C(=O)O[C@H]1CCC=C2C=C[C@H](C)[C@H](CC[C@@H]3C[C@@H](O)CC(=O)O3)[C@H]21` [mevastatin], in assay [2], the “gene expression of OCN compared with the control and the comparison (BMP-2)” value is “increase in gene expression of OCN”. Moreover, the “effect on proliferation of DPSCs compared with the control” value in assay [1] (day 5) is reported as “inhibited proliferation of DPSCs with a significant difference”. On to `O=C(O)C[C@H](O)C[C@H](O)/C=C/c1c(C2CC2)nc2ccccc2c1-c1ccc(F)cc1` [pitavastatin], for which the “effect on proliferation of DPSCs compared with the control” value in assay [1] (day 5) is recorded as “inhibited proliferation of DPSCs with a significant difference”. In the case of `CCC(C)(C)C(=O)O[C@H]1C[C@@H](C)C=C2C=C[C@H](C)[C@H](CC[C@@H]3C[C@@H](O)CC(=O)O3)[C@H]21` [simvastatin], in assay [3], the “increase in gene expression of DSPP” value was 10.9 fold. Further, in assay [2] (SVS 1 μM vs BMP-2 100 ng/ml, DPSCs, p=0.0002, Scheffe's multiple comparison test), the “increase in gene expression of OCN compared with the BMP-2” value came out at 7.4 fold. Moreover, the “increase in gene expression of OCN compared with the control” value in assay [2] (SVS 1 μM, DPSCs, p=0.0004, Scheffe's multiple comparison test) is listed as 18.8 fold. Besides, the “proliferation of dental pulp stem cells (DPSCs)” value in assay [1] (SVS 1 μM, day 5 from the beginning of cultivation, vs control (PBS), significant decrease, p<0.0001) was 0.73 fold.

B1: Noggin: a BMP inhibitor (R&D systems) (protein, UniProt Q13253 28-232, looked up)
Noggin: QHYLHIRPAPSDNLPLVDLIEHPDPIFDPKEKDLNETLLRSLLGGHYDPGFMATSPPEDRPGGGGGAAGGAEDLAELDQLLRQRPSGAMPSEIKGLEFSEGLAQGKKQRLSKKLRRKLQMWLWSQTFCPVLYAWNDLGSRFWPRYVKVGSCFSKRSCSVPEGMVCKPSKSVHLTVLRWRCQRRGGQRCGWIPIQYPIISECKCSC
For the molecule B1, the “effect on cellular proliferation of DPSCs compared with the control” value in assay [1] (day 5, Example 4, FIG. 9, statin = simvastatin 1 μM) was “an effect on cellular proliferation of DPSCs was not observed”.
